# Measured values taken from patent US10844077B2, “Thiazolyl-containing compounds for treating proliferative diseases” (Dana-Farber Cancer Institute, Inc., priority 2014, dated 2020).
# Values joined by “and” are separate entries in the source; they are usually repeats but may differ in a detail not shown here. Identical values can stand only once.
# Biological target: LYN (Homo sapiens (Human), UniProt P07948)
# Experiment: KINATIV assay
# Assay type: cell-based
# Conditions: 1 μM, 90 minutes, BCWM.1 cells
# Summary of the method: (§1)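 Duplicate compound samples were compared with duplicate or quadruplicate controls. After harvesting and lysis, cells' lysates were probe-labeled (ATP-biotin), and kinase labeling was quantitated by ACTIVX.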
# LYN, sequence (P07948 whole entry): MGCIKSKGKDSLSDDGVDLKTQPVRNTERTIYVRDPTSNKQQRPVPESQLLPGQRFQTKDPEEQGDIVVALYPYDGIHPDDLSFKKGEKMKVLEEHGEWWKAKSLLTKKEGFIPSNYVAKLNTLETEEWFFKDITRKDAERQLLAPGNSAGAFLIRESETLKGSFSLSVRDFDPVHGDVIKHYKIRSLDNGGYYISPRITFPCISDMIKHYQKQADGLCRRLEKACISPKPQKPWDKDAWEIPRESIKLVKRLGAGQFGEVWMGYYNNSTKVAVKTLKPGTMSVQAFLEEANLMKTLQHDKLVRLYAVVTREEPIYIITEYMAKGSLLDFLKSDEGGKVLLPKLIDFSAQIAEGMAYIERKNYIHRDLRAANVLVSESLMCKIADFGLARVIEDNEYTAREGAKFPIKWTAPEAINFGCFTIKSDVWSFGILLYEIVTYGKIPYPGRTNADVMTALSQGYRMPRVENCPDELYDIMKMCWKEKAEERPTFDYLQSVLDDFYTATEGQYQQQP
row,SMILES,% change of MS signal compared to control sample
1,C=CC(=O)N1CC[C@@H](Nc2nccc(Nc3ncc(C(=O)Nc4c(C)cccc4C)s3)n2)C1 [Example I-4],>97% and >90%

# Biological target: RSK3 domain1 (Homo sapiens (Human), UniProt Q15349)
# Experiment: KINATIV assay
# Assay type: cell-based
# Conditions: 1 μM, 90 minutes, BCWM.1 cells
# Summary of the method: as §1
row,SMILES,% change of MS signal compared to control sample
1,C=CC(=O)N1CC[C@@H](Nc2nccc(Nc3ncc(C(=O)Nc4c(C)cccc4C)s3)n2)C1 [Example I-4],−26.9%

# Biological target: NEK8 (Homo sapiens (Human), UniProt Q86SG6)
# Experiment: KINATIV assay
# Assay type: cell-based
# Conditions: 1 μM, 90 minutes, BCWM.1 cells
# Summary of the method: as §1
# NEK8, sequence (Q86SG6 whole entry): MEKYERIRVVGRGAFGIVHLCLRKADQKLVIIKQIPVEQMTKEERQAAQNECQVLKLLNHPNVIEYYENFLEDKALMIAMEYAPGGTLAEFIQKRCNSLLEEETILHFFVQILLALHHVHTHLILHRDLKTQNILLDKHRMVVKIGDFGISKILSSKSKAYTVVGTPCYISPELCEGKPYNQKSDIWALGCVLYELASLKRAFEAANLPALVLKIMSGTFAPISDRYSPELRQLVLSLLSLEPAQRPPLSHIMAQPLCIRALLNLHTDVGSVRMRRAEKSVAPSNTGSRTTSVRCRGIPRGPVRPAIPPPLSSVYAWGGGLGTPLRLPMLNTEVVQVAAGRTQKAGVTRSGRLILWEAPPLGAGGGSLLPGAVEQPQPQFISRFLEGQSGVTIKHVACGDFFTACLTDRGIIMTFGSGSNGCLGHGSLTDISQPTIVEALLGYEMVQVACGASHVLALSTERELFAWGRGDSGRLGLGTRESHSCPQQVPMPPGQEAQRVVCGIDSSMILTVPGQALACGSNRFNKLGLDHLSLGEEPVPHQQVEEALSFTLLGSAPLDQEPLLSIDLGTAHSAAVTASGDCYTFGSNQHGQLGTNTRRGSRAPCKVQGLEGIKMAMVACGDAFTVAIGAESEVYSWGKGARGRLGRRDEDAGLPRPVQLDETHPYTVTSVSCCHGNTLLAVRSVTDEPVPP
row,SMILES,% change of MS signal compared to control sample
1,C=CC(=O)N1CC[C@@H](Nc2nccc(Nc3ncc(C(=O)Nc4c(C)cccc4C)s3)n2)C1 [Example I-4],14.6%

# Biological target: MELK (Homo sapiens (Human), UniProt Q14680)
# Experiment: KINATIV assay
# Assay type: cell-based
# Conditions: 1 μM, 90 minutes, BCWM.1 cells
# Summary of the method: as §1
# MELK, sequence (Q14680 whole entry): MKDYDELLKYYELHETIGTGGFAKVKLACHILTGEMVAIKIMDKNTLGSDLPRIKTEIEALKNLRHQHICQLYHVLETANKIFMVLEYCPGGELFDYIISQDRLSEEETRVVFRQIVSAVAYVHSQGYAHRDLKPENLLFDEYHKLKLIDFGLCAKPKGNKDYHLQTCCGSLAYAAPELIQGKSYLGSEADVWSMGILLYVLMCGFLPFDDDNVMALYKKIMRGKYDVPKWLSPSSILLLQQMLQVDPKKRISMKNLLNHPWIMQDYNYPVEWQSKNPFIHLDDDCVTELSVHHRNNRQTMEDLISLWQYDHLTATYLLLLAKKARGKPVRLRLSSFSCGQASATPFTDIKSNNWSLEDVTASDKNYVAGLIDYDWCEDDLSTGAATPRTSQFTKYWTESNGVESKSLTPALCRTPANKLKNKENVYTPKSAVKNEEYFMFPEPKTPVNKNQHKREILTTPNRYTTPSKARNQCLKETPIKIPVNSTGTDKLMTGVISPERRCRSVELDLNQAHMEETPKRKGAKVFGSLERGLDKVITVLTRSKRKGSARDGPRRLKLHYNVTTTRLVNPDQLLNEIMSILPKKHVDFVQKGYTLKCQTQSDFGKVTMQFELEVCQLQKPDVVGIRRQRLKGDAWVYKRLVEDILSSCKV
row,SMILES,% change of MS signal compared to control sample
1,C=CC(=O)N1CC[C@@H](Nc2nccc(Nc3ncc(C(=O)Nc4c(C)cccc4C)s3)n2)C1 [Example I-4],−11.7%

# Biological target: LCK (Homo sapiens (Human), UniProt P06239)
# Experiment: KINATIV assay
# Assay type: cell-based
# Conditions: 1 μM, 90 minutes, BCWM.1 cells
# Summary of the method: as §1
row,SMILES,% change of MS signal compared to control sample
1,C=CC(=O)N1CC[C@@H](Nc2nccc(Nc3ncc(C(=O)Nc4c(C)cccc4C)s3)n2)C1 [Example I-4],96.1%

# Biological target: LATS2 (Homo sapiens (Human), UniProt Q9NRM7)
# Experiment: KINATIV assay
# Assay type: cell-based
# Conditions: 1 μM, 90 minutes, BCWM.1 cells
# Summary of the method: as §1
row,SMILES,% change of MS signal compared to control sample
1,C=CC(=O)N1CC[C@@H](Nc2nccc(Nc3ncc(C(=O)Nc4c(C)cccc4C)s3)n2)C1 [Example I-4],−9.2%

# Tested on: ABL, ARG
# Experiment: KINATIV assay
# Assay type: cell-based
# Conditions: 1 μM, 90 minutes, BCWM.1 cells
# Summary of the method: as §1
row,SMILES,% change of MS signal compared to control sample
1,C=CC(=O)N1CC[C@@H](Nc2nccc(Nc3ncc(C(=O)Nc4c(C)cccc4C)s3)n2)C1 [Example I-4],>90% and 91.7%

# Biological target: STLK6 (Homo sapiens (Human), UniProt Q9C0K7)
# Experiment: KINATIV assay
# Assay type: cell-based
# Conditions: 1 μM, 90 minutes, BCWM.1 cells
# Summary of the method: as §1
row,SMILES,% change of MS signal compared to control sample
1,C=CC(=O)N1CC[C@@H](Nc2nccc(Nc3ncc(C(=O)Nc4c(C)cccc4C)s3)n2)C1 [Example I-4],7.4%

# Biological target: RSK1 domain2 (Homo sapiens (Human), UniProt Q15418)
# Experiment: KINATIV assay
# Assay type: cell-based
# Conditions: 1 μM, 90 minutes, BCWM.1 cells
# Summary of the method: as §1
row,SMILES,% change of MS signal compared to control sample
1,C=CC(=O)N1CC[C@@H](Nc2nccc(Nc3ncc(C(=O)Nc4c(C)cccc4C)s3)n2)C1 [Example I-4],12.5%

# Tested on: ZC1/HGK, ZC2/TNIK, ZC3/MINK
# Experiment: KINATIV assay
# Assay type: cell-based
# Conditions: 1 μM, 90 minutes, BCWM.1 cells
# Summary of the method: as §1
row,SMILES,% change of MS signal compared to control sample
1,C=CC(=O)N1CC[C@@H](Nc2nccc(Nc3ncc(C(=O)Nc4c(C)cccc4C)s3)n2)C1 [Example I-4],3.3%

# Biological target: MASTL (Homo sapiens (Human), UniProt Q96GX5)
# Experiment: KINATIV assay
# Assay type: cell-based
# Conditions: 1 μM, 90 minutes, BCWM.1 cells
# Summary of the method: as §1
# MASTL, sequence (Q96GX5 whole entry): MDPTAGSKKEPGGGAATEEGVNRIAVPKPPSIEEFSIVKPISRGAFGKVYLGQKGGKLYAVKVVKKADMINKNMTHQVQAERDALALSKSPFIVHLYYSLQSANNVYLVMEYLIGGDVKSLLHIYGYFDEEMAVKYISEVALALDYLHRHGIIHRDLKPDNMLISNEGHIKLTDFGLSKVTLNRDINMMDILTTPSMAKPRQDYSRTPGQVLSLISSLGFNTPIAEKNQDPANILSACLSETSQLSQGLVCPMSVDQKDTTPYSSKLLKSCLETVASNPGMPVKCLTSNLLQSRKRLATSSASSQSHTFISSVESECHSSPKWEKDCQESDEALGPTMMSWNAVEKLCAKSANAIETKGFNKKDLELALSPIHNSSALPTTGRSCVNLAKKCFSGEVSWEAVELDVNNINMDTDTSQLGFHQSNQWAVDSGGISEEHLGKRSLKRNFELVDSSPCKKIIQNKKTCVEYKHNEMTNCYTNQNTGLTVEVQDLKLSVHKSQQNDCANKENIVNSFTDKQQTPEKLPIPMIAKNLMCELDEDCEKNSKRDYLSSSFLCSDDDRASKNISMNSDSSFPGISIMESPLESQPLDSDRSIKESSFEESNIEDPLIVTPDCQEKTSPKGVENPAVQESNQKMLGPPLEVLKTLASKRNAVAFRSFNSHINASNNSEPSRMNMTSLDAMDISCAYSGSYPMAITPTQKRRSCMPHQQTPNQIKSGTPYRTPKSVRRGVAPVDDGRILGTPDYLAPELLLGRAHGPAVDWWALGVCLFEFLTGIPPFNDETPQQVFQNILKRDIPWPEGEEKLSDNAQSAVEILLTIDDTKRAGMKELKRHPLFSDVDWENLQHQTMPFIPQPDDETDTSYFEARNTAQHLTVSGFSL
row,SMILES,% change of MS signal compared to control sample
1,C=CC(=O)N1CC[C@@H](Nc2nccc(Nc3ncc(C(=O)Nc4c(C)cccc4C)s3)n2)C1 [Example I-4],−2.9% and −0.3%

# Biological target: IKKa (Homo sapiens (Human), UniProt O15111)
# Experiment: KINATIV assay
# Assay type: cell-based
# Conditions: 1 μM, 90 minutes, BCWM.1 cells
# Summary of the method: as §1
row,SMILES,% change of MS signal compared to control sample
1,C=CC(=O)N1CC[C@@H](Nc2nccc(Nc3ncc(C(=O)Nc4c(C)cccc4C)s3)n2)C1 [Example I-4],6.4%

# Biological target: MAP3K4 (Homo sapiens (Human), UniProt Q9Y6R4)
# Experiment: KINATIV assay
# Assay type: cell-based
# Conditions: 1 μM, 90 minutes, BCWM.1 cells
# Summary of the method: as §1
row,SMILES,% change of MS signal compared to control sample
1,C=CC(=O)N1CC[C@@H](Nc2nccc(Nc3ncc(C(=O)Nc4c(C)cccc4C)s3)n2)C1 [Example I-4],−20.5%

# Tested on: MARK1, MARK2
# Experiment: KINATIV assay
# Assay type: cell-based
# Conditions: 1 μM, 90 minutes, BCWM.1 cells
# Summary of the method: as §1
row,SMILES,% change of MS signal compared to control sample
1,C=CC(=O)N1CC[C@@H](Nc2nccc(Nc3ncc(C(=O)Nc4c(C)cccc4C)s3)n2)C1 [Example I-4],17.1%

# Biological target: IRAK1 (Homo sapiens (Human), UniProt P51617)
# Experiment: KINATIV assay
# Assay type: cell-based
# Conditions: 1 μM, 90 minutes, BCWM.1 cells
# Summary of the method: as §1
row,SMILES,% change of MS signal compared to control sample
1,C=CC(=O)N1CC[C@@H](Nc2nccc(Nc3ncc(C(=O)Nc4c(C)cccc4C)s3)n2)C1 [Example I-4],20.3%

# Biological target: PHKg2 (Homo sapiens (Human), UniProt P15735)
# Experiment: KINATIV assay
# Assay type: cell-based
# Conditions: 1 μM, 90 minutes, BCWM.1 cells
# Summary of the method: as §1
row,SMILES,% change of MS signal compared to control sample
1,C=CC(=O)N1CC[C@@H](Nc2nccc(Nc3ncc(C(=O)Nc4c(C)cccc4C)s3)n2)C1 [Example I-4],−15.6%

# Biological target: MST2 (Homo sapiens (Human), UniProt Q13188)
# Experiment: KINATIV assay
# Assay type: cell-based
# Conditions: 1 μM, 90 minutes, BCWM.1 cells
# Summary of the method: as §1
# MST2, sequence (Q13188 whole entry): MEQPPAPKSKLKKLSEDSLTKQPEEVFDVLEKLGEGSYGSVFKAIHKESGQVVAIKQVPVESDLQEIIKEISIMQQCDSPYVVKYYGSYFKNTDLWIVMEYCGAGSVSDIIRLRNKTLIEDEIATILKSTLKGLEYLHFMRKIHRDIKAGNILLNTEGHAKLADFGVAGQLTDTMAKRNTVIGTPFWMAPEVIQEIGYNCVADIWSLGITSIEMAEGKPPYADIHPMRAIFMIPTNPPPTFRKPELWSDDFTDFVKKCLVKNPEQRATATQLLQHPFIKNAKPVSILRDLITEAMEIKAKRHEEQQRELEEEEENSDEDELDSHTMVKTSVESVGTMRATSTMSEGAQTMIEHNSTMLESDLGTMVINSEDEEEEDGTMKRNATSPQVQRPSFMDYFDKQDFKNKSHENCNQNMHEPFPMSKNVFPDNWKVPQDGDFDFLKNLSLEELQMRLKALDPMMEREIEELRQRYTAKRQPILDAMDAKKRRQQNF
row,SMILES,% change of MS signal compared to control sample
1,C=CC(=O)N1CC[C@@H](Nc2nccc(Nc3ncc(C(=O)Nc4c(C)cccc4C)s3)n2)C1 [Example I-4],12.3%

# Biological target: PIK3CG (Homo sapiens (Human), UniProt P48736)
# Experiment: KINATIV assay
# Assay type: cell-based
# Conditions: 1 μM, 90 minutes, BCWM.1 cells
# Summary of the method: as §1
row,SMILES,% change of MS signal compared to control sample
1,C=CC(=O)N1CC[C@@H](Nc2nccc(Nc3ncc(C(=O)Nc4c(C)cccc4C)s3)n2)C1 [Example I-4],−46.3%

# Biological target: TYK2 domain2 (Homo sapiens (Human), UniProt P29597)
# Experiment: KINATIV assay
# Assay type: cell-based
# Conditions: 1 μM, 90 minutes, BCWM.1 cells
# Summary of the method: as §1
row,SMILES,% change of MS signal compared to control sample
1,C=CC(=O)N1CC[C@@H](Nc2nccc(Nc3ncc(C(=O)Nc4c(C)cccc4C)s3)n2)C1 [Example I-4],−3.8%

# Tested on: MAP3K2, MAP3K3
# Experiment: KINATIV assay
# Assay type: cell-based
# Conditions: 1 μM, 90 minutes, BCWM.1 cells
# Summary of the method: as §1
row,SMILES,% change of MS signal compared to control sample
1,C=CC(=O)N1CC[C@@H](Nc2nccc(Nc3ncc(C(=O)Nc4c(C)cccc4C)s3)n2)C1 [Example I-4],24.8%

# Biological target: GCN2 (Homo sapiens (Human), UniProt Q9P2K8)
# Experiment: KINATIV assay
# Assay type: cell-based
# Conditions: 1 μM, 90 minutes, BCWM.1 cells
# Summary of the method: as §1
# GCN2, sequence (Q9P2K8 whole entry): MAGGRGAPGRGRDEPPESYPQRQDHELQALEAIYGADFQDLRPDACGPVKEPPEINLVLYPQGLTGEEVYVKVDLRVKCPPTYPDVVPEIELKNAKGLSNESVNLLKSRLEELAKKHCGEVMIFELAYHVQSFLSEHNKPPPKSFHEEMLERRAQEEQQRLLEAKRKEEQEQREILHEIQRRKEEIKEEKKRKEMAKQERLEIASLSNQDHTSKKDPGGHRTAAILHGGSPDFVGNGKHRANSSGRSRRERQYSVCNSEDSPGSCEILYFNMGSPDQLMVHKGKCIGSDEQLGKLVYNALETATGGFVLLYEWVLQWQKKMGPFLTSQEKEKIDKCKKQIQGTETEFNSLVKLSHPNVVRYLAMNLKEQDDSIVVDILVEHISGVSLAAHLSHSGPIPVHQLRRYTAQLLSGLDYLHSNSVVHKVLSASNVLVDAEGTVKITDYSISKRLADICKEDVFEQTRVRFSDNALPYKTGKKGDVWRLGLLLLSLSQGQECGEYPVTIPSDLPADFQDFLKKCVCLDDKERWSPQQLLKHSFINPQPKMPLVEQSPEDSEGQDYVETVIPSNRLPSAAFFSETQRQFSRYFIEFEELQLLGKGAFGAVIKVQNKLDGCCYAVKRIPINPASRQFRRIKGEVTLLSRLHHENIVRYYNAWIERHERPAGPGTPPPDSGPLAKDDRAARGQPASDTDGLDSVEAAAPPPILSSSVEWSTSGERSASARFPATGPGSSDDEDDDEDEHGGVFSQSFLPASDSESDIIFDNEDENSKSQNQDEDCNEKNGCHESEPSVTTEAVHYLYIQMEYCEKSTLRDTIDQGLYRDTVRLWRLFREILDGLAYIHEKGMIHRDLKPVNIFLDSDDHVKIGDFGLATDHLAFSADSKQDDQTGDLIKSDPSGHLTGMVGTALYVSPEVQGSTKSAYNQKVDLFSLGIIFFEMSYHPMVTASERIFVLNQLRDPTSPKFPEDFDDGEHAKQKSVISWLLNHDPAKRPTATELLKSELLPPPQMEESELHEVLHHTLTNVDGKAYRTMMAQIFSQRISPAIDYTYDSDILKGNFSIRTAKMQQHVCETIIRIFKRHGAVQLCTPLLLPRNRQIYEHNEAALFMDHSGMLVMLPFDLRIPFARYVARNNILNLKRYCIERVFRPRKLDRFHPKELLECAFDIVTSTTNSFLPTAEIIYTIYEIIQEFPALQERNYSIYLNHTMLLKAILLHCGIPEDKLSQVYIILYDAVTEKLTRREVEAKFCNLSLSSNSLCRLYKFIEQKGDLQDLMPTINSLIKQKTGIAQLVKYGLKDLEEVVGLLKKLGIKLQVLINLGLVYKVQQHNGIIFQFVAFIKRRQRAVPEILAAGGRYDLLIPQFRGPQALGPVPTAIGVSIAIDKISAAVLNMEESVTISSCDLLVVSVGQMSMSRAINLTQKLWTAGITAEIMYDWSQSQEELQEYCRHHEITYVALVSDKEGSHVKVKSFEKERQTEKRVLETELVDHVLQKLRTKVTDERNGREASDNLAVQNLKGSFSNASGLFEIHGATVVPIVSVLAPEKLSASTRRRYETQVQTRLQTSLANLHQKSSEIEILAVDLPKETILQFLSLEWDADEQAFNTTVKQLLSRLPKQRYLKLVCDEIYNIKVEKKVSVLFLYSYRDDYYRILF
row,SMILES,% change of MS signal compared to control sample
1,C=CC(=O)N1CC[C@@H](Nc2nccc(Nc3ncc(C(=O)Nc4c(C)cccc4C)s3)n2)C1 [Example I-4],−11.0% and −5.7%
